Assay results published in the supplement of paper PMC11616607.

What was measured:
Assay in all cases: drug sensitivity score (DSS) from 5-point dose-response viability curve (DSS (area-under-curve based score)); higher = more sensitive (stronger growth inhibition or killing); extreme values may be limits of the assay
Conditions in all cases: exposure time: 72 h; concentration range: 5 concentrations over 10,000-fold range
[1] = tested on: CAOV3
Outline: (§1)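 Each cell line and drug received a drug sensitivity score from Breeze software, where higher means more sensitive. Zero stands for no response. Scores came from CellTiter-Glo viability readings of ovarian cancer and normal ovarian cells, 1,500 per well in 384-well plates, after 3 days at 37°C, 5% CO2 with drugs at five concentrations over a 10,000-fold range.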

[2] = tested on: COV318
Outline: as §1

[3] = tested on: COV362
Outline: as §1

[4] = tested on: HOSE1C
Outline: as §1

[5] = tested on: HOSE2C
Outline: as §1

[6] = tested on: JHOS2
Outline: as §1

[7] = tested on: Kuramochi
Outline: as §1

[8] = tested on: OV90
Outline: as §1

[9] = tested on: OVCAR4
Outline: as §1

[10] = tested on: OVCAR5
Outline: as §1

[11] = tested on: OVCAR8
Outline: as §1

[12] = tested on: Ovsaho
Outline: as §1

Row | Structure (SMILES) | drug sensitivity score [1] | drug sensitivity score [2] | drug sensitivity score [3] | drug sensitivity score [4] | drug sensitivity score [5] | drug sensitivity score [6] | drug sensitivity score [7] | drug sensitivity score [8] | drug sensitivity score [9] | drug sensitivity score [10] | drug sensitivity score [11] | drug sensitivity score [12]
1 | CN1CCN(CCOc2cc(OC3CCOCC3)c3c(Nc4c(Cl)ccc5c4OCO5)ncnc3c2)CC1 [Saracatinib] | 8.2 | 0.4 | 5.6 | 2 | 5 | 3.1 | 9.7 | 5 | 3.8 | 9.2 | 5.1 | 7
2 | O=C(/C=C\n1cnc(-c2cc(C(F)(F)F)cc(C(F)(F)F)c2)n1)NNc1ccccn1 [Verdinexor] | 9.2 | 3.6 | 4.7 | 22.2 | 6.1 | 7 | 3.1 | 5.1 | 5.4 | 7.5 | 10.9 | 7.6
3 | N#CC(c1ccnc(OCc2ccc(CN3CCOCC3)cc2)n1)c1nc2ccccc2s1 (stereo unspecified) [Bentamapimod] | 1.5 | 1.3 | 3.8 | 0 | 0.3 | 1.4 | 2 | 5.5 | 1.8 | 4.5 | 2.3 | 1.1
4 | COc1cc2ncnc(Nc3cccc(Cl)c3F)c2cc1OC(=O)N1CCN(C)C[C@H]1C [AZD3759] | 3.5 | 0 | 0 | 0 | 0 | 0.2 | 0 | 0 | 0 | 0.2 | 0 | 0
5 | C[C@]12CC[C@@H]3c4ccc(O)cc4C[C@@H](CCCCCCCCC[S+]([O-])CCCC(F)(F)C(F)(F)F)[C@H]3[C@@H]1CC[C@@H]2O (stereo partly specified) [Fulvestrant] | 0 | 0 | 0 | 0 | 0 | 0 | 0 | 0 | 0 | 0 | 0 | 0
6 | C[C@H](Nc1ncnc2nc[nH]c12)c1cc2cccc(Cl)c2c(=O)n1-c1ccccc1 [Duvelisib] | 0.1 | 0 | 0 | 0.2 | 0 | 0 | 2 | 0 | 0.7 | 0 | 0 | 1.4
7 | N.N.[Cl][Pt][Cl] [Cisplatin] | 16.5 | 11.7 | 3.3 | 18.3 | 16.4 | 4.3 | 11.2 | 4.8 | 10.7 | 8.8 | 5 | 15.7
8 | CC(C)(C)C[C@@H]1N[C@@H](C(=O)N[C@H]2CC[C@H](O)CC2)[C@H](c2cccc(Cl)c2F)[C@]12C(=O)Nc1cc(Cl)ccc12 | 0 | 0.3 | 1.2 | 14.7 | 16.9 | 0 | 1.5 | 2.1 | 0.1 | 0.4 | 0.4 | 1.4
9 | CCCCCCCCc1ccc(CCC(N)(CO)CO)cc1 [Fingolimod] | 6 | 7 | 6.2 | 7.4 | 5.4 | 5.5 | 7.5 | 6.2 | 7.5 | 6.4 | 6.8 | 7.6
10 | O=C(Nc1cccc(NC(=O)c2cccc(O)c2O)c1)c1cccc(O)c1O [MST-312] | 6.7 | 5.4 | 5.1 | 11.9 | 10.5 | 9.4 | 5.5 | 7.6 | 7.2 | 5 | 13.9 | 9.7
11 | CC1(COc2ccc3c(c2)ncn3-c2ccc3cccc(N4CCC(N)CC4)c3n2)COC1 [Crenolanib] | 10 | 5.4 | 6.8 | 4.8 | 2.8 | 7.9 | 4 | 6 | 2.9 | 4.9 | 6.9 | 4.4
12 | CCN1C(=O)CNc2ncc(-c3ccc(-c4nc[nH]n4)nc3C)nc21 [CC-115] | 8 | 5.6 | 2.4 | 12 | 9.2 | 7.5 | 7.3 | 10.4 | 9.3 | 7.4 | 8.5 | 11.2
13 | CC(=O)N(O)CCCCCNC(=O)CCC(=O)N(O)CCCCCNC(=O)CCC(=O)N(O)CCCCCN [Deferoxamine] | 2.8 | 2.2 | 0.5 | 1.8 | 0 | 0.7 | 3.7 | 4.5 | 3.4 | 2.6 | 2.7 | 3.8
14 | COc1ccc(-c2ccc3c(N4CCOC[C@@H]4C)nc(N4CCOC[C@@H]4C)nc3n2)cc1CO [AZD8055] | 15.6 | 13.6 | 6.4 | 20.7 | 16.2 | 14.4 | 15.6 | 20.8 | 17.5 | 18.4 | 17.2 | 16.9
15 | CC[C@H](NC(=O)[C@H](C)NC)C(=O)N1C[C@@H](O)C[C@H]1Cc1c(-c2[nH]c3cc(F)ccc3c2C[C@@H]2C[C@H](O)CN2C(=O)[C@H](CC)NC(=O)[C@H](C)NC)[nH]c2cc(F)ccc12 [Birinapant] | 9.2 | 0.2 | 0 | 0 | 0 | 5.6 | 0.4 | 0.8 | 12.6 | 0 | 1.9 | 11.6
16 | C[C@@H]1CCN(C(=O)CC#N)C[C@@H]1N(C)c1ncnc2[nH]ccc12 [Tofacitinib] | 0 | 0 | 0 | 2.8 | 0.2 | 0 | 0 | 0.3 | 0 | 0.2 | 0 | 0
17 | Cn1cc(-c2ccc(F)c(C(F)(F)F)c2)nc1C1CCN(c2ncnc3[nH]ncc23)CC1 | 0 | 0 | 0 | 1.9 | 3.2 | 0 | 0 | 0 | 0 | 0 | 0.1 | 0
18 | Nc1ccn([C@@H]2O[C@H](CO)[C@@H](O)C2(F)F)c(=O)n1 [Gemcitabine] | 23.6 | 3.5 | 8.1 | 8.2 | 6.7 | 12.7 | 0 | 13.5 | 0 | 15.5 | 23.6 | 3.3
19 | C[C@@H]1CN(CC(=O)Nc2ccc3c(c2)Cc2cccc(-c4cc(=O)cc(N5CCOCC5)o4)c2S3)C[C@H](C)O1 | 1.1 | 0 | 1.2 | 0 | 0 | 0 | 0.5 | 2.7 | 0.7 | 1.6 | 1.9 | 3.4
20 | COc1cc2ncnc(Nc3ccc(F)c(Cl)c3)c2cc1OCCCN1CCOCC1 [Gefitinib] | 7.2 | 0.5 | 0.3 | 0 | 0.3 | 1.6 | 1.8 | 4 | 1.9 | 5.6 | 3.3 | 3.8
21 | CN(C(=O)c1ccc(F)cc1C(F)(F)F)C1CCN(c2nnc(-c3ccnn3C)c3ccccc23)CC1 [Taladegib] | 0 | 0.1 | 0 | 0 | 0 | 0 | 0 | 0 | 0 | 0.2 | 0 | 0
22 | Cc1ccc(NS(=O)(=O)c2cccc(C#N)c2)c2[nH]cc(C#N)c12 [E7820] | 4.8 | 2.8 | 0 | 7.3 | 5 | 10.7 | 0.8 | 2.7 | 4.4 | 3.3 | 3.3 | 1.2
23 | O=C(O)CC[C@H]1CC[C@@](c2cc(F)ccc2F)(S(=O)(=O)c2ccc(Cl)cc2)CC1 [MK-0752] | 0 | 0 | 0 | 0 | 0 | 0 | 0 | 0.2 | 0 | 0.9 | 0 | 0
24 | O=C(O)c1ccc(-c2c[nH]c3ncc(-c4ccccc4)cc23)cc1C1CCCC1 | 2.3 | 0 | 0.1 | 0 | 1.2 | 0 | 0 | 1.2 | 0 | 1.4 | 0.3 | 0
25 | O=S(=O)(c1cccc2c(O)nccc12)N1CCCNCC1 [Hydroxyfasudil] | 0 | 0.1 | 0 | 0 | 0 | 0.4 | 0 | 0 | 0 | 0 | 0 | 0
26 | O=C1c2c(O)ccc(O)c2C(=O)c2c(NCCNCCO)ccc(NCCNCCO)c21 [Mitoxantrone] | 13 | 3.9 | 4 | 12.5 | 12.8 | 6.2 | 3.2 | 5.9 | 4.2 | 6.1 | 9.2 | 6.5
27 | C[C@]12CC[C@H](O)CC1=CC[C@@H]1[C@@H]2CC[C@]2(C)C(c3cccnc3)=CC[C@@H]12 [Abiraterone] | 0 | 0 | 0 | 0.1 | 0 | 0 | 0 | 0.5 | 0.3 | 0 | 0 | 0
28 | CCOc1ccccc1-n1c(C(C)N2CCN(C(=O)COc3ccc(Cl)cc3)CC2)nc2ccccc2c1=O (stereo unspecified) [Erastin] | 0.9 | 1.9 | 1.4 | 0 | 0 | 0 | 0 | 1.4 | 9.1 | 0.9 | 7.9 | 0
